PubChem BioAssay (NCI)
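Method: 48-hour compound exposure of cells in 96-well plates, five concentrations, linear interpolation of endpoints. At the TGI there is no net growth.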

How the values were obtained:
Assay in all cases: growth of human tumour cells (NCI), 48 h
CAKI-1 renal = test system: CAKI-1 renal
UO-31 renal = test system: UO-31 renal
ACHN renal = test system: ACHN renal
RPMI-8226 leukemia = test system: RPMI-8226 leukemia
MALME-3M melanoma = test system: MALME-3M melanoma
SW-620 colon = test system: SW-620 colon
DU-145 prostate = test system: DU-145 prostate
OVCAR-5 ovarian = test system: OVCAR-5 ovarian
NCI-H522 lung = test system: NCI-H522 lung
SK-MEL-28 melanoma = test system: SK-MEL-28 melanoma
MOLT-4 leukemia = test system: MOLT-4 leukemia
HOP-92 NSCLC = test system: HOP-92 NSCLC
SK-OV-3 ovarian = test system: SK-OV-3 ovarian

Row | SMILES | TGI (CAKI-1 renal) [µM] | TGI (UO-31 renal) [µM] | TGI (ACHN renal) [µM] | TGI (RPMI-8226 leukemia) [µM] | TGI (MALME-3M melanoma) [µM] | TGI (SW-620 colon) [µM] | TGI (DU-145 prostate) [µM] | TGI (OVCAR-5 ovarian) [µM] | TGI (NCI-H522 lung) [µM] | TGI (SK-MEL-28 melanoma) [µM] | TGI (MOLT-4 leukemia) [µM] | TGI (HOP-92 NSCLC) [µM] | TGI (SK-OV-3 ovarian) [µM]
1 | CCOC(=O)CCC(NC(=O)c1ccc(OCc2ccc3nc(OC)c(OC)nc3c2)cc1)C(=O)OCC (centres undefined) | > 100 | > 100 | > 100 | > 100 | 69.2 | > 100 | > 100 | > 100 | 64.8 | > 100 | > 100 | > 100 | > 100
2 | c1ccc(CNCCCNCCCCNCCCNCc2ccccc2)cc1 | 23 | 25.7 | 21.4 | 13.7 | 5.01 | 9.13 | 25.4 | 16.2 | 3.37 | 26.7 | 2.74 | 3.57 | 31
3 | c1ccc(-c2sc(-c3ccccc3)c3c2C2CCC3C2)cc1 | > 100 | 58.3 | > 100 | 44.9 | > 100 | > 100 | > 100 | > 100 | 60.5 | > 100 | > 100 | 47.9 | > 100
4 | Cc1cc(O)c2c(c1)C(=O)C=C(Br)C2=O | 27.7 | 28.9 | 29.3 | 23 | 17.2 | 12.2 | 17 | 29.7 | 7.34 | 29.7 | 4.45 | 27 | > 100
5 | O=C(Nc1sccc1S(=O)(=O)c1ccc(Cl)cc1)c1ccc(Cl)cc1Cl | > 100 | > 100 | > 100 | > 100 | > 100 | > 100 | > 100 | > 100 | > 100 | > 100 | > 100 | > 100 | > 100
6 | CC(=O)c1c2c(cc3c1CC1(C3)Cc3ccc4c(c3C1=O)CCC4)CCC2 (centres undefined) | > 100 | > 100 | > 100 | > 100 | > 100 | > 100 | > 100 | > 100 | 9.51 | > 100 | > 100 | 83.7 | > 100
7 | CN(C)C=NCc1ccc2c(c1)OCO2 | > 100 | > 100 | > 100 | > 100 | > 100 | > 100 | > 100 | > 100 | > 100 | > 100 | > 100 | > 100 | > 100
8 | [O-]/N=N\c1on[n+](CCc2ccccc2)c1Cc1c(/N=N/[O-])on[n+]1CCc1ccccc1 | > 100 | > 100 | > 100 | > 100 | 66.6 | > 100 | > 100 | > 100 | 43.8 | > 100 | > 100 | 65.8 | > 100
9 | COC1=CCC2=C(CCN(C(=O)C3CC3)C2Cc2ccc(OC)c(O)c2)C1 (centres undefined) | > 100 | > 100 | > 100 | > 100 | > 100 | > 100 | > 100 | > 100 | 82.4 | > 100 | > 100 | 96.9 | > 100
10 | CC1(C)CC(=O)C(CC2C(=O)c3ccccc3C2=O)C(=O)C1C(=O)C(=O)Nc1cccc2ccc(O)cc12 (centres undefined) | > 100 | > 100 | > 100 | > 100 | > 100 | > 100 | > 100 | > 100 | > 100 | > 100 | > 100 | > 100 | > 100
11 | CC(C)CNC(=O)c1c(NC(=O)c2ccccc2)sc2[nH]c(=O)n(-c3ccccc3)c(=O)c12 | > 80.9 | > 100 | 61 | > 100 | > 100 | > 100 | > 100 | > 100 | > 100 | > 100 | > 100 | 19.7 | > 81.2
12 | CC(=O)[C@H]1[C@@H](OCc2ccccc2)O[N+]([O-])=C(C)[C@@H]1c1ccccc1 | 52 | 40.2 | 78.4 | 37.9 | 47 | 31.7 | > 100 | > 100 | 26.4 | 98.4 | 41.2 | 62.4 | > 100
13 | Cc1ccccc1C(=O)NC(O)(C(F)(F)F)C(F)(F)F | > 100 | > 100 | > 100 | > 100 | > 100 | > 100 | > 100 | > 100 | > 100 | > 100 | > 100 | > 100 | > 100
